Literature values as cited in US11129842B2, “Methods and compositions for treating diseases related to imbalance of essential fatty acids” (BODYBIO INC., priority 2018, dated 2021).

Tests used:
[1] = biological target: CB1 cannabinoid receptor (Homo sapiens, UniProt P21554)
[2] = biological target: CB2 receptor (Homo sapiens, UniProt P34972)
Chain of CB2 receptor (P34972 whole entry): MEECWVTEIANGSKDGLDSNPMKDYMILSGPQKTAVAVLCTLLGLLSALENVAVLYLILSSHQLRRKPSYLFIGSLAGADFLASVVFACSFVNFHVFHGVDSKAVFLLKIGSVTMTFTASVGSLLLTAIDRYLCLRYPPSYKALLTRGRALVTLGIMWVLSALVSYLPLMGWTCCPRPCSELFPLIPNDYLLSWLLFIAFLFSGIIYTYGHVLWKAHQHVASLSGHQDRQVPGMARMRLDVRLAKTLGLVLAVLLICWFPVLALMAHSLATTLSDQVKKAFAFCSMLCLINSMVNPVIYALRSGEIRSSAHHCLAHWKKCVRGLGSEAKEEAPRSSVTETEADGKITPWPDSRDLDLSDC

Chain of CB1 cannabinoid receptor (P21554 whole entry): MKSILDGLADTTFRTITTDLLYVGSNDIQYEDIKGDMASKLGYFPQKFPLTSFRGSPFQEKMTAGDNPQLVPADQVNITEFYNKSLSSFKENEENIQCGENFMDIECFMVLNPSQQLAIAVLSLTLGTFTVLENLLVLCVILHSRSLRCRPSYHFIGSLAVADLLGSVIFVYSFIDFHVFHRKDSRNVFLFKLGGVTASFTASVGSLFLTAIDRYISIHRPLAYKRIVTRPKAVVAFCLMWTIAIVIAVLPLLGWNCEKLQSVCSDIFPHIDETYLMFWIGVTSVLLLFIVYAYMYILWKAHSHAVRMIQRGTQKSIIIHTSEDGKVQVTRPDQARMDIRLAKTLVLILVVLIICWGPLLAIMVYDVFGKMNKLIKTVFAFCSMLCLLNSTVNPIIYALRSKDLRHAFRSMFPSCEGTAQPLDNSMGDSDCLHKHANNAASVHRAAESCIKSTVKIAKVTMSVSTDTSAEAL

In the case of `CCCCC/C=C\C/C=C\C/C=C\C/C=C\CCCCOC(CO)CO` [Noladin ether, 2-arachidonyl glyceryl ether], the Ki [1] is given as 21.2 nM and the “binding to the CB2 receptor” value [2] is given as “only weakly”.
